Values of other authors, collected in publication PMC12802961 (Journal of Antimicrobial Chemotherapy, 2025).
Like-named read-outs stand apart in the source and are kept apart here.

Conditions: cited from earlier work

| SMILES | Ct (threshold concentration) (ceftolozane/tazobactam) | Ct (threshold concentration) (ceftazidime/avibactam) |
| --- | --- | --- |
| C[C@]1(Cn2ccnn2)[C@H](C(=O)O)N2C(=O)C[C@H]2S1(=O)=O [tazobactam] | 0.5 mg/L | – |
| NC(=O)[C@@H]1CC[C@@H]2CN1C(=O)N2OS(=O)(=O)O [avibactam] | – | 1 mg/L |
